Here are results for 80 compounds from the METLIN SMRT retention time set (Domingo-Almenara et al. 2019).

This data set can be described thus: gradient 5% acetonitrile 3 min, to 50% in 2 min, to 85% in 15 min, held 3 min, 100 µL/min. To be noted: column: Zorbax Extend-C18 2.1 x 50 mm; eluents: water / acetonitrile, 0.1% formic acid. The essentials:
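Retention times of pure standards were taken from adduct peaks that were selected by computer and manually inspected. Over 3 months, mixtures of ~100 molecules were run by HPLC–quadrupole time-of-flight mass spectrometry in positive and negative ionization mode. The Zorbax Extend-C18 column (2.1 × 50 mm, 1.8 μm) ran at 100 μL/min in water and acetonitrile, each containing 0.1% formic acid, with 40 μL dead volume and 900 μL dwell volume.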
For `CCS(=O)(=O)Nc1ccc(-c2noc(-c3ccc4c(c3)OCO4)n2)cc1`, the RP-LC retention time is 954 s.

Turning to `O=C(Nc1cccs1)Nc1ccccc1NC(=O)c1ccccc1C(F)(F)F`, the RP-LC retention time is 805 s. `CN(C)C[C@@H]1CN(Cc2ccccn2)C[C@H]1NS(=O)(=O)c1cccc(F)c1` registered an RP-LC retention time of 553 s. With `Cc1ccc(CNC(=O)Cn2ccnc2-c2ccnc(N3CCCC3)c2)cc1` the figure was 602 s; with `O=C(NCc1ccc(F)cc1F)c1ccc2c(c1)nc1n2CCN(Cc2ccccc2)C1=O`, 795 s; with `CN(C)C(CNC(=O)C(=O)Nc1ccc(OC(F)(F)F)cc1)c1ccccc1Cl` (stereo not given), 622 s. Consider `CCOC(=O)c1sc(NC(=O)C2CC(=O)N(c3n[nH]c4ccccc34)C2)nc1C` (stereo not given), for which the RP-LC retention time is 750 s. Then `Cc1ccc(NC(=O)N2CCC(c3cc(N)on3)CC2)cc1Cl`, with 774 s; and `CN(C)C(=O)c1ccc2c(c1)N(CC(=O)Nc1ccc(F)cc1)C(=O)CS2`, with 704 s. With `CCn1c(=O)c(SCC(=O)NCCCN2CCCC(C)C2)nc2ccccc21` (stereo not given) the figure was 615 s; with `CCCNC(=O)c1cnn(-c2cc(-c3nc(C)no3)ccn2)c1C`, 772 s; with `O=C(Nc1cccn2c(C3CCC3)nnc12)C1COc2ccccc2O1` (stereo not given), 837 s. With `Cc1ccc(Cl)cc1N1C(=O)CN(S(C)(=O)=O)CC1(C)C(=O)NCc1ccc(F)cc1` (stereo not given) the figure was 814 s; with `COc1ccc(NC(=O)c2cnc3c(c2)c(=O)n(C)c(=O)n3-c2ccc(C)cc2)cc1F`, 849 s. In turn, `CCc1cccc(NC(=O)Cn2c(=O)c3cc(C4CC4)nn3c3ncccc32)c1` gave an RP-LC retention time of 844 s. On to `O=C(O)CCC1CCN(c2cc(NC3CC3)ncn2)CC1`, for which the RP-LC retention time came to 587 s. Then `CN(C)c1ccc(CNC(=O)c2cc3n(n2)CC(C)(C(=O)NC2CCCCCC2)N(C)C3=O)cc1` (stereo not given), with 649 s; and `Cc1ccc(Sc2nccnc2N2CCCC(C(=O)NCc3ccccn3)C2)cc1` (stereo not given), with 766 s; and `COC(=O)c1nnn(-c2cc(Cl)ccc2C)c1C(=O)OC`, with 933 s. Then `COCCC(=O)N1CCCn2cc(-c3cccc(C#N)c3)nc21`, with 639 s; and `O=C(CCCc1nc2cccnc2n1Cc1ccc(F)cc1)N1CCN(c2ccccn2)CC1`, with 606 s. In turn, `Cc1cc(-c2ccc(S(=O)(=O)N3CCC(C(=O)NC4CCCC4)CC3)o2)n[nH]1` came in with an RP-LC retention time of 737 s. On to `COc1ccc(OC)c(NC(=O)COc2cc(C(F)(F)F)c3c(C)nn(C)c3n2)c1`, for which the RP-LC retention time is 1100 s. With `Cc1ccc(Nc2c(-c3ccc(C)cc3)nc3nc(C)cc(C)n23)cc1` the figure was 780 s; with `Cc1ccc(Nc2cc(N3CCN(C(=O)COc4ncccn4)CC3)nc(C)n2)cc1`, 563 s. As to `Cc1nc(Nc2ccccn2)sc1C(=O)N1CCN(C2CCCCC2)CC1`, the RP-LC retention time worked out at 597 s. Then `COc1ccc(N2CC(c3noc(-c4cc(OC)cc(OC)c4)n3)CC2=O)cc1` (stereo not given), with 959 s; and `Cc1sc(-c2noc(C3CCC3)n2)cc1S(=O)(=O)N1CCC(C(=O)N2CCOCC2)CC1`, with 948 s. Compound `O=C(Nc1cccc(Cl)c1)Nc1cccc(-c2ccc3nncn3n2)c1` had an RP-LC retention time of 734 s. With `COCCNC(=O)c1cccnc1N1CCNC(c2ccccc2)C1` (stereo not given) the figure was 564 s.

As for `CCc1ccccc1NC(=O)C1CCCN(S(=O)(=O)c2cn(CC)cn2)C1` (stereo not given), the RP-LC retention time is 726 s.

On to `CCc1cccc(C)c1NC(=O)Cn1nc(N2CCOCC2)c2ccccc2c1=O`, for which the RP-LC retention time was 809 s. With `O=C(NC1CCCC1)c1nc(C(=O)N2CCN(c3cccc(Cl)c3)CC2)cs1`, the RP-LC retention time was determined as 1020 s.

In the case of `O=C(NCC1CCCO1)C1CCCN(c2nccnc2Sc2ccccc2)C1` (stereo not given), the RP-LC retention time came to 860 s. With `COC(=O)c1cc(S(=O)(=O)N2CCCC2C(=O)Nc2ccc(Cl)cc2C)cn1C` (stereo not given) the figure was 958 s; with `COCc1cc(=O)n(CC(=O)Nc2c(C)cccc2C)c(N)n1`, 604 s. `O=C(c1ccc(Cl)cc1)N1CCC(n2c(-c3ccco3)nc3cccnc32)C1` (stereo not given) came in with an RP-LC retention time of 805 s. As for `CC(C)(C)NC(=O)N(Cc1ccsc1)CC(F)(F)F`, the RP-LC retention time was 925 s. With `CC1=CS/C(=C(/C#N)C(=O)N2CCOCC2)N1c1ccccc1` the figure was 635 s; with `CCCn1cnc2cc(CNC(=O)Cc3c(Cl)cccc3Cl)ccc21`, 666 s; with `Cc1ccc(NC(=O)N2C[C@@H](F)C[C@H]2C(=O)N2CCc3ccccc3C2)cc1F`, 873 s. Then `COC(=O)c1ccccc1NC(=O)Cn1ccn2nc(-c3ccccc3)c(CO)c2c1=O`, with 884 s. Compound `COC(=O)c1c(C)c(C(=O)C(C)N(CC(C)C)C(=O)c2ccc(Cl)cc2)c(C)n1C` (stereo not given) came in with an RP-LC retention time of 1080 s. With `Cc1ccc(CNC(=O)C2(C)CCN(S(=O)(=O)c3ccccc3Cl)CC2)cc1`, the RP-LC retention time turned out to be 998 s. With `COc1ccc(Cc2nnc(SCC(=O)Nc3nc(-c4ccccc4)c(C)s3)o2)cc1`, the RP-LC retention time was 1020 s. Then `COc1ccccc1Nc1c(-c2ccc(Br)cc2)nc2cnccn12`, with 1080 s; and `Cc1ccccc1Cn1cc(-c2ccncc2)cc1C(=O)NCC1CC1`, with 704 s; and `CC(C)Oc1ccc(-c2noc(Cc3nnc(-c4ccccc4)o3)n2)cc1`, with 1100 s. `O=c1ccc(-c2ccc3c(c2)OCO3)nn1CCc1nc(-c2cccnc2)no1` gave an RP-LC retention time of 720 s.

On to `Cc1cc(N(C)C)n2nc(-c3ccc(Cl)cc3)c(C)c2n1`, for which the RP-LC retention time is 744 s. For the compound `CC(C)C(=O)Nc1ccc(-n2cnc(C(=O)NCc3cc(F)cc(F)c3)c2)nc1`, the RP-LC retention time is 785 s.

For `CCc1nccn1Cc1nc(-c2cccc(C(F)(F)F)c2)no1`, the RP-LC retention time stood at 686 s. Turning to `CNC(=O)c1cn2ccnc(-c3ccc(OC)cc3)c2n1`, the RP-LC retention time was 711 s. In the case of `O=C(Nc1nccs1)c1cc(-c2ccncc2)nc2ccccc12`, the RP-LC retention time stood at 614 s. As to `CCOc1ccccc1NC(=O)N1CCC(c2cnn(-c3ccccc3)c2)CC1`, the RP-LC retention time came to 1040 s. The compound `CCOc1ccc(S(=O)(=O)N2CCC(C(=O)NCc3ccccn3)CC2)cc1` came in with an RP-LC retention time of 658 s. Then `O=S(=O)(c1ccccc1)N1CC[C@@H]2COCCN(Cc3ccccc3)[C@@H]2C1`, with 675 s.

The compound `COCCNC(=O)CC1CCN(C(=O)c2ccc3oc(C4CC4)nc3c2)CC1` yielded an RP-LC retention time of 601 s. For `Cc1ccc(NC(=O)N2CCC(n3cnnc3C3CC3)C2)c(Cl)c1` (stereo not given), the RP-LC retention time came out at 663 s. Regarding `CC1CN2C=NC(N3CCN(C(=O)Nc4ccc(F)cc4F)CC3)=CC2=N1` (stereo not given), the RP-LC retention time came to 664 s. With `Cc1ccc(Cn2c(=O)n(CCNC(=O)CC(C)C)c3ncccc32)cc1` the figure was 806 s; with `O=C(CC1CCN(C(=O)NC2CCCCC2)CC1)N1CCN(c2ccccn2)CC1`, 598 s; with `Cn1nc(C(=O)Nc2ccc(S(N)(=O)=O)cc2)ccc1=O`, 582 s. Then `C=CCN1C(=O)COc2ccc(-c3csc(NC(=O)CCC)n3)cc21`, with 894 s; and `Cc1cc(C)n(-c2ccnc(N(C)Cc3ccccc3)n2)n1`, with 1070 s. `CC(C)CN(Cc1ccc(F)cc1)Cc1cc(=O)n2cc(Cl)ccc2n1` registered an RP-LC retention time of 706 s.

The compound `Cc1ccc(-c2nc3nc(C)c(CC(=O)N4CCCC4)c(C)n3n2)cc1` showed an RP-LC retention time of 738 s. With `CCCn1ccc2oc(C)c(C(=O)N3CCN(C4CCCCC4)CC3)c2c1=O` the figure was 612 s; with `CC(C(=O)N1CCCc2ccccc21)n1nc(-c2ccc3c(c2)OCCO3)ccc1=O` (stereo not given), 871 s. Then `COc1cccc(CNC(=O)C2CCc3nc(N4CCCCC4)ncc3C2)c1` (stereo not given), with 665 s; and `COC(=O)C(C)NC(=O)NCc1cccn1Cc1ccccc1` (stereo not given), with 794 s; and `COc1cccc(S(=O)(=O)N2CCC3(C2)C(=O)Nc2ccc(OC)cc23)c1` (stereo not given), with 816 s. Compound `COc1ccc(CNC(=O)c2cn(C)nc2S(=O)(=O)N2CCC(C)CC2)cc1` came in with an RP-LC retention time of 904 s. `Cc1ccc2c(Nc3ccc(S(N)(=O)=O)cc3)c(C(=O)OC(C)C)cnc2n1` displayed an RP-LC retention time of 840 s. With `O=C(NCCO)c1cccc(-c2cc(Nc3ccc(OC(F)(F)F)cc3)ncn2)c1` the figure was 793 s; with `CCN1C(=O)c2cccnc2Sc2cc(NC(=O)CCc3ccccc3)ccc21`, 950 s. Consider `Nc1cc(C2CCN(C(=O)Nc3ccc(Br)cc3)CC2)no1`, for which the RP-LC retention time was determined as 732 s.

Compound `O=C(NC1CCCCC1)c1ncoc1-c1ccccc1C(=O)N1CCCC1` displayed an RP-LC retention time of 798 s. With `O=C(NCc1cccc(Cl)c1)C1c2ccccc2CCN1C(=O)C1CC1` (stereo not given) the figure was 838 s. `CCSc1nnc(NC(=O)c2ccc(OC)c([N+](=O)[O-])c2)s1` came in with an RP-LC retention time of 802 s.
